In PubChem BioAssay AID652207 (The Scripps Research Institute Molecular Screening Center, 2013):
Activity calls are given as the source filed them.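 How the source made its calls: active means IC50 below 10 µM for blocking the PP1 phosphatase acting on a fluorogenic substrate; inactive means IC50 of 10 µM or more.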

Molecular target: Serine/threonine-protein phosphatase PP1-alpha catalytic subunit (Homo sapiens) (UniProt P62136)
Test: PP1 inhibitor potency with OMFP substrate, dose response, biochemical, fluorescence, set 2 (AID 652207)
Conditions: purified PP1alpha, OMFP dephosphorylation fluorescence

Serine/threonine-protein phosphatase PP1-alpha catalytic subunit (Homo sapiens), sequence (P62136 whole entry, looked up): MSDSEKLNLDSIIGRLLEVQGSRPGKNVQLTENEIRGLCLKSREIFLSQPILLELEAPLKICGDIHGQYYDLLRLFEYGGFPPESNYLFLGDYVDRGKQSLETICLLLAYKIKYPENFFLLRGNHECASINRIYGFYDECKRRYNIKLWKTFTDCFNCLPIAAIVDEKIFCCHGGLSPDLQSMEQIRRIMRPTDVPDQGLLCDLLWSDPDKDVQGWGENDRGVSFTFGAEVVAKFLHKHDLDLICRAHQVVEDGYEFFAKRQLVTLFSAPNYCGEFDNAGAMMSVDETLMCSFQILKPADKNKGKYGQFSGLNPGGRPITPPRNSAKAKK

| SMILES | IC50 |
| --- | --- |
| Oc1c(Cc2ccccn2)ccc2cccnc12 | 2640 nM |
| CN1CCN(Cc2cc(Cl)c3cccnc3c2O)CC1 | inactive |
| CN1CCN(C(c2nccs2)c2cc(Cl)c3cccnc3c2O)CC1 (stereo unspecified) | 1620 nM |
| CN1CCN(C(c2cccs2)c2cc(Cl)c3cccnc3c2O)CC1 (stereo unspecified) | 8420 nM |
| Oc1c(C(c2ccccn2)N2CCOCC2)cc(Cl)c2cccnc12 (stereo unspecified) | 1320 nM |
| CN1CCN(C(c2ccccn2)c2ccc3cccnc3c2O)CC1 (stereo unspecified) | 1150 nM |
